Values belong to the compound of their own block, whether it stands above or below them.
Columns and labels:
[1] = Ultraviolet absorption (450 nm) over time of buffered lysine solutions with or without malto-oligosaccharide, warmed to 75° C.; assay type: physicochemical
Description: A pH 6 buffered lysine solution was prepared by dissolving L-lysine (0.5 g) in phosphate buffer and adjusting the pH with hydrochloric acid. […] An aqueous solution of a reduced malto-oligosaccharide was prepared by dissolving a reduced malto-oligosaccharide mixture in water to produce a solution having a final solids content of 50% by weight. The buffered lysine solution (2 mL) was dissolved in the aqueous reduced malto-oligosaccharide solution (hydrogenated MALTRIN® M180) (3 mL) to produce a solution.

[2] = test system: Enzeco® Fungal Lactase Concentrate; test: Lactase enzyme activity before and after freeze drying (glucose released from a buffered lactose solution); assay type: biochemical
Description: The enzyme activity was determined in accordance with Mazzobre et al., Biopolymer Science: Food and Non Food Applications, Montpellier (France) Sep. 28-30, 1998 Ed. INRA, Paris, 1999 (Les Colloques, no 91). The procedure is based on measuring the amount of glucose released from a buffered lactose solution. The measurement was done using a YSI 2700 glucose analyzer.
For comparison, a mixture containing lactase and a malto-oligosaccharide was prepared, as follows. A 20% aqueous solution of MALTRIN® M180 (M180) was prepared by dissolving 85.5 g (6.4% moisture) of M180 in 313.5 g of deionized water. Enzeco® Fungal Lactase Concentrate, 1.0 g was added to the slurry and stirred for one hour. A 20.0 ml aliquot of the mixture was removed as a control (sample 8A). The remaining sample was poured into two separate freeze drying pans and each was freeze dried according to the temperature profile in Table 3. The temperature profile shown in column 8B of Table 3 represents the temperature profile for only one of the two samples in the freeze drying pans. The freeze dryer was a Virtis Genesis 25XL unit. Final vacuum of the system was 11.8 mtorr. After freeze drying, the material was removed from the pans and evaluated for enzyme activity. The enzyme activity in column 8B of Table 4 represents an average of the enzyme activities for each of the two samples in the freeze drying pans.
A mixture containing lactase and a reduced malto-oligosaccharide was freeze dried as follows. A 20% aqueous solution of reduced malto-oligosaccharide with a carbohydrate profile that matches MALTRIN® M180 (H-M180) was prepared by dissolving 83.4 g (4.1% moisture) of the reduced malto-oligosaccharide in 315.6 g of deionized water. Enzeco® Fungal Lactase Concentrate (1.0 g) was added to the slurry and stirred for one hour. A 20.0 ml aliquot of the mixture was removed as a control (sample 8C). The remaining sample was poured into two separate freeze drying pans and freeze dried according to the temperature profile in Table 3 (samples 8D-1 and 8D-2). The freeze dryer was a Virtis Genesis 25XL unit. Final vacuum of the system was 11.8 mtorr. After freeze drying, the material was removed from the pans and evaluated for enzyme activity as described in the previous example.
For comparison, a mixture containing lactase and trehalose was freeze dried, as follows. A 20% aqueous solution of trehalose was prepared by dissolving 88.9 g (9.1% moisture) of trehalose in 311.0 g of deionized water. Enzeco® Fungal Lactase Concentrate, 1.0 g was added to the slurry and stirred for-one hour. A 20.0 ml aliquot of the mixture was removed as a control (sample 8E). The remaining sample was poured into two separate freeze drying pans and each was freeze dried according to the temperature profile in Table 3. The temperature profile shown in column 8F of Table 3 represents the temperature profile of only one of the two samples in the freeze drying pans. The freeze dryer was a Virtis Genesis 25XL unit. Final vacuum of the system was 11.8 mtorr. After freeze drying, the material was removed from the pans and evaluated for enzyme activity as described in the previous example. The enzyme activity in column 8F of Table 4 represents an average of the enzyme activities for each of the two samples in the freeze drying pans.
The enzymatic activities shown in Table 4 are expressed as the percentage of glucose liberated in the enzyme assay as measured by the amount of glucose liberated divided by the maximum amount of glucose that can be theoretically liberated.

[3] = test system: Fleischmann's baker's yeast; test: Yeast viability before and after freeze drying (cell counting after plating on YM agar); assay type: cell-based; conditions: yeast viability of freeze dried sample divided by that of control sample
Description: Yeast viability was determined by cell counting after plating on yeast extract, malt extract (YM) agar in accordance with the method described in FDA Bacteriological Analytical Manual, 6th Ed., Ch. 4, pp. 401-402 (1984). Yeast viability is expressed as the number of cells per gram of dry solids (gm.ds). The percent yeast survival was determined by dividing the yeast viability of the freeze dried sample by the yeast viability of the control sample.
For comparison, a mixture of yeast cells and a malto-oligosaccharide was freeze dried, as follows. A 20% aqueous solution of MALTRIN® M180 (M180) was prepared by dissolving 85.5 g (6.4% moisture) of M180 in […] of deionized water. A suspension of yeast cells was prepared by dissolving 5.78 g of Fleischmann's baker's yeast in 94.3 g of sterile phosphate buffer. The yeast suspension was stirred for 30 minutes to obtain a relatively homogenous yeast mixture. A 10.0 ml aliquot of the yeast suspension was pipetted into the 20% aqueous M180 solution. A control sample was removed to determine yeast viability by plating on YM agar (sample 9A). […] After freeze drying, sample 9B was removed from the pans and analyzed for yeast viability. […]
A mixture of yeast cells and a reduced malto-oligosaccharide was freeze dried, as follows. […] After freeze drying, samples 9D-1 and 9D-2 were removed from the pans and analyzed for yeast viability. […]

SMILES: NCCCC[C@H](N)C(=O)O [Control (lysine only), L-lysine]
- UV absorption (450 nm) ([1]; time 0 min): 0.044
- UV absorption (450 nm) ([1]; time 20 min): 0.043
- UV absorption (450 nm) ([1]; time 35 min): 0.044
- UV absorption (450 nm) ([1]; time 50 min): 0.046
- UV absorption (450 nm) ([1]; time 65 min): 0.047
- UV absorption (450 nm) ([1]; time 80 min): 0.048
- UV absorption (450 nm) ([1]; time 100 min): 0.050
- UV absorption (450 nm) ([1]; time 110 min): 0.050
- UV absorption (450 nm) ([1]; time 125 min): 0.051
- UV absorption (450 nm) ([1]; time 170 min): 0.055
- UV absorption (450 nm) ([1]; time 185 min): 0.057
- UV absorption (450 nm) ([1]; time 200 min): 0.057
- UV absorption (450 nm) ([1]; time 215 min): 0.059
- UV absorption (450 nm) ([1]; time 230 min): 0.059
- UV absorption (450 nm) ([1]; time 245 min): 0.058
- UV absorption (450 nm) ([1]; time 260 min): 0.061
- UV absorption (450 nm) ([1]; time 305 min): 0.061
- UV absorption (450 nm) ([1]; time 320 min): 0.063
- UV absorption (450 nm) ([1]; time 335 min): 0.063
- UV absorption (450 nm) ([1]; time 350 min): 0.063
- UV absorption (450 nm) ([1]; time 365 min): 0.064
- UV absorption (450 nm) ([1]; time 380 min): 0.065

- % activity (freeze dried sample divided by control sample not freeze dried) ([2]; Avg. over assay times): 86.6%
- % activity (freeze dried sample divided by control sample not freeze dried) ([2]; lactase assay time 0 h): 0%
- % activity (freeze dried sample divided by control sample not freeze dried) ([2]; lactase assay time 0.05 h): 72.4%
- % activity (freeze dried sample divided by control sample not freeze dried) ([2]; lactase assay time 0.5 h): 90.0%
- % activity (freeze dried sample divided by control sample not freeze dried) ([2]; lactase assay time 1 h): 90.7%
- % activity (freeze dried sample divided by control sample not freeze dried) ([2]; lactase assay time 2 h): 93.2%
SMILES: OC[C@H]1O[C@H](O[C@H]2O[C@H](CO)[C@@H](O)[C@H](O)[C@H]2O)[C@H](O)[C@@H](O)[C@@H]1O [Trehalose, trehalose]
- % Yeast Survival [3]: 58.0 (trehalase) %

— patent publication US6610672B2, “Compositions including reduced malto-oligosaccharide preserving agents, and methods for preserving a material” (Grain Processing Corporation, priority 1999, dated 2003)
